Data taken from patent US12371429B2, “Antibiotic resistance-modifying tricyclic heteroaryl compounds and uses thereof” (Recreo Pharmaceuticals LLC, priority 2018, dated 2025).
Converted amounts (≈) assume the structure as drawn. Like-named read-outs stand apart in the source and are kept apart here.

What was measured:
[1] = tested on: Staphylococcus aureus (MRSA, NRS384); experiment: MIC determination, broth microdilution; type: cell-based
Text: (§1) Bacterial strains representing pathogenic species of clinical concern, the so called ESKAPE pathogens, were selected for MIC studies using compounds A and B. The results are shown in Table A. These species are from the families or genera Enterococcus, Staphylococcus, Klebsiella, Acinetobacter, Pseudomonas, and Enterobacteriaceae. Specifically, Enterococcus faecium HM-204 and HM-460, Staphylococcus aureus strains NRS384 and COL, Klebsiella pneumoniae strains NR-48976 and NR-48977, Acinetobacter baumannii strains NR-17783 and NR-19299, Pseudomonas aeruginosa strain NR-48982 and Salmonella enterica strains NR-22067 and NR-22068 were purchased from BEI resources. Escherichia coli strain ATCC 25922, and the Staphylococcus aureus (S. aureus) strains ATCC 25923 (MSSA) and ATCC BAA-44 (MRSA) were purchased from the American Type Culture Collection (ATCC).
(§2) General Procedure for Minimal inhibitory concentration (MIC) determination. The minimal inhibitory concentrations (MICS) of antimicrobial compounds A, B, and C were determined by the broth microdilution method detailed in the Clinical and Laboratory Standards Institute handbook (Cockerill and Clinical and Laboratory Standards Institute, Methods for Dilution Antimicrobial Susceptibility Tests for Bacteria That Grow Aerobically). All antimicrobial compounds were purchased from Sigma-Aldrich. The growth media used for all MIC experiments, except those for Enterococcus faecium, was Mueller Hinton Broth (MHB) purchased from HIMEDIA through VWR (cat: 95039-356). For experiments using Enterococcus faecium, the growth and susceptibility medium was BD Bacto™ Brain Heart Infusion (BHI) Broth purchased from VWR (cat: 90003-040). USA Scientific CytoOne 96-well Clear Tissue Culture assay plates (cat: CC7682-7596) were used for all MIC and MRC experiments. MIC assay plates were prepared by diluting the antibiotic to be tested in a 2-fold series down the assay plate. A total of 8 concentrations of each compound were tested in triplicate. Compounds were prepared in 180 μL at 2× the intended final concentrations in MHB or BHI and 2% DMSO.
(§3) The bacterial inoculum was prepared by selecting 5-7 colonies from an agar plate to make a day culture in BHI of the bacterial species to be assayed. This was grown at 37° C. for 2-4 hours. After having reached the mid-logarithmic growth phase (OD600 0.15-0.4), the day culture was diluted in the appropriate assay medium (MHB or BHI) to OD600 0.002. 100 μL of this inoculum was added to each experimental well of the 96-well assay plate resulting in an additional two-fold dilution of the bacterial culture and an initial OD600 of 0.001 in the assay plate, a final volume of 200 μL and the intended compound concentrations in 1% DMSO. MIC assay plates were then incubated at 37° C. with shaking for 18 hours.
(§4) The MICs were determined as defined in the Clinical and Laboratory Standards Institute handbook. After overnight growth, Plates were read by eye and 600 nm absorbance read using a BioTek Epoch2 Microplate Spectrophotometer (BioTek).

[2] = tested on: MRSA strain BAA-44; experiment: MIC determination, broth microdilution; type: cell-based, Staphylococcus aureus
Text: as §1, §2, §3, §4

[3] = tested on: MRSA strain BAA-44; experiment: Antibiotic MICs in the presence of Compound C; type: cell-based, Staphylococcus aureus; settings: MRSA BAA-44; in the presence of 5 mg/L Compound C
Method: as §2, §3, §4
(§5) Determination of Antibiotic MICs in the Presence of Compound C against MRSA and MSSA. Methicillin-resistant S. aureus (MRSA) strain ATCC BAA-44 and the methicillin-sensitive S. aureus (MSSA) strain ATCC 25923 were used to determine the MIC values of various antimicrobial compounds in the presence of 5 μg/mL Compound C. […] The test antibiotics were then diluted into assay plates as described earlier. The final concentration of Compound C after inoculation with BAA-44 was 5 μg/mL. MIC values were determined by the methods described above.

[4] = tested on: MRSA strain NRS-384; experiment: Antibiotic MICs in the presence of Compound C; type: cell-based, Staphylococcus aureus; settings: MRSA NRS-384; in the presence of 5 mg/L Compound C
Method: [The source words this procedure for another variant and reports this variant under the same test.] as §2, §3, §4, §5

[5] = tested on: MRSA strain ATCC 700789; experiment: MIC determination, broth microdilution; type: cell-based, Staphylococcus aureus; settings: MRSA strain ATCC 700789 (Table C)
Method: as §2, with “Compounds were prepared in 180 μL at 2× the intended final concentrations in MHB or BHI and 2% DMSO.” left out
as §4

[6] = tested on: MRSA strain ATCC-33592; experiment: MIC determination, broth microdilution; type: cell-based, Staphylococcus aureus; settings: MRSA strain ATCC-33592 (Table C)
Method: as §2, with “Compounds were prepared in 180 μL at 2× the intended final concentrations in MHB or BHI and 2% DMSO.” left out
as §4

[7] = tested on: MRSA strain ATCC 700789; experiment: Minimal re-sensitizing concentration (MRC) determination; type: cell-based, Staphylococcus aureus
Method: (§6) Minimal re-sensitizing concentration (MRC) determination. Antibiotic MIC breakpoint values where S. aureus is considered susceptible were determined from the CLSI handbook supplement. MHB was supplemented with the antibiotic at a concentration two-fold greater than the CLSI susceptible MIC value. Two-fold serial dilutions of Compound C were prepared in antibiotic supplemented media in 96-well microplates. These were inoculated with MRSA diluted to OD600 0.002 and incubated at 37° C. with shaking for 18 hours before results were interpreted. The concentration of […] in antibiotic supplemented media at which there was no observable growth was considered the minimum re-sensitizing concentration (MRC).

[8] = tested on: MRSA strain ATCC-33592; experiment: as above; type: cell-based, Staphylococcus aureus
Method: as §6

[9] = tested on: MRSA strain BAA-44; experiment: as above; type: cell-based, Staphylococcus aureus
Method: as §6

[10] = tested on: MRSA strain NRS-384; experiment: as above; type: cell-based, Staphylococcus aureus
Method: as §6

[11] = Staphylococcus aureus, MRSA NRS-384, in the absence of Compound C, read-out: MIC mg/L (NRS-384)
[12] = Staphylococcus aureus, MRSA BAA-44, in the absence of Compound C, read-out: MIC mg/L (BAA-44)
[13] = medium supplemented with amox/clav
[14] = medium supplemented with cefazolin

SMILES	MIC [1, 11]	MIC [2, 12]	MIC (BAA-44) (+5 mg/L Compound C) [3]	MIC (NRS-384) (+5 mg/L Compound C) [4]	other results
Cc1nnc(SCC2=C(C(=O)O)N3C(=O)[C@@H](NC(=O)Cn4cnnn4)[C@H]3SC2)s1 [Cefazolin, reference compound]	64 mg/L (≈ 141 µM)	128 mg/L (≈ 282 µM)	<2 µg/mL	<2 µg/mL	
C[C@@H](O)[C@H]1C(=O)N2C(C(=O)O)=C(S[C@@H]3CN[C@H](C(=O)N(C)C)C3)[C@H](C)[C@H]12 [Meropenem, reference compound]	8 mg/L (≈ 20.9 µM)	16 mg/L (≈ 41.7 µM)	<0.25 µg/mL	<0.25 µg/mL	
CC(=O)NC[C@H]1CN(c2ccc(N3CCOCC3)c(F)c2)C(=O)O1 [Linezolid]	2 mg/L (≈ 5.93 µM)	1 mg/L (≈ 2.96 µM)	0.5 µg/mL	1 µg/mL	
COc1cccc(OC)c1C(=O)N[C@@H]1C(=O)N2[C@@H]1SC(C)(C)[C@@H]2C(=O)O [Methicillin, reference compound]	256 mg/L (≈ 673 µM)	> 256 mg/L	4 µg/mL	8 µg/mL	
CO[C@H]1/C=C/O[C@@]2(C)Oc3c(C)c(O)c4c(O)c(c(/C=N/N5CCN(C)CC5)c(O)c4c3C2=O)NC(=O)/C(C)=C\C=C\[C@H](C)[C@H](O)[C@@H](C)[C@@H](O)[C@@H](C)[C@H](OC(C)=O)[C@@H]1C [Rifampicin]	< 0.0312 mg/L	1 mg/L (≈ 1.22 µM)		<0.03125 µg/mL	
[H]/N=C(/N)N[C@H]1[C@H](O)[C@@H](O)[C@H](O[C@@H]2O[C@@H](C)[C@](O)(C=O)[C@H]2O[C@@H]2O[C@@H](CO)[C@H](O)[C@@H](O)[C@@H]2NC)[C@@H](N/C(N)=N\[H])[C@@H]1O [Streptomycin]	8 mg/L (≈ 13.8 µM)	> 32 mg/L	>32 µg/mL	1 µg/mL	
O=C(c1ccc(Cl)cc1)N1CCc2c([nH]c3ccc(Cl)cc23)C1 [Compound C]	> 100 mg/L	> 100 mg/L			MIC ([1]; MRSA strain NRS-384 (Table C)): > 64 mg/L; MIC ([2]; MRSA strain BAA-44 (Table C)): 64 mg/L (≈ 185 µM); MIC [5]: > 64 µg/mL; MIC [6]: 4 µg/mL (≈ 11.6 µM); MRC to Amox/clav [7, 13]: 4; MRC to Cefazolin [7, 14]: 4; MRC to Amox/clav [8, 13]: 2; MRC to Cefazolin [8, 14]: 2; MRC to Amox/clav ([9]; medium supplemented with amox/clav at two-fold greater than the CLSI susceptible MIC): 4; MRC to Cefazolin ([9]; medium supplemented with cefazolin at two-fold greater than the CLSI susceptible MIC): 4; MRC to Amox/clav [10, 13]: 2; MRC to Cefazolin [10, 14]: 4
CN(C)[C@@H]1C(O)=C(C(N)=O)C(=O)[C@@]2(O)C(O)=C3C(=O)c4c(O)cccc4[C@@](C)(O)[C@H]3C[C@@H]12 [Tetracycline]	8 mg/L (≈ 18 µM)	16 mg/L (≈ 36 µM)	4 µg/mL	4 µg/mL	
Cc1onc(-c2ccccc2)c1C(=O)N[C@@H]1C(=O)N2[C@@H]1SC(C)(C)[C@@H]2C(=O)O [Oxacillin, reference compound]	64 mg/L (≈ 159 µM)	64 mg/L (≈ 159 µM)	<2 µg/mL	<2 µg/mL	
CCC[C@@H]1C[C@@H](C(=O)N[C@@H]([C@H]2O[C@H](SC)[C@H](O)[C@@H](O)[C@H]2O)[C@H](C)Cl)N(C)C1 [Clindamycin]	0.125 mg/L (≈ 0.294 µM)	> 4 mg/L	>4 µg/mL	<0.03125 µg/mL	
CN[C@H](CC(C)C)C(=O)N[C@H]1C(=O)N[C@@H](CC(N)=O)C(=O)N[C@H]2C(=O)N[C@H]3C(=O)N[C@H](C(=O)N[C@H](C(=O)O)c4cc(O)cc(O)c4-c4cc3ccc4O)[C@H](O)c3ccc(c(Cl)c3)Oc3cc2cc(c3O[C@@H]2O[C@H](CO)[C@@H](O)[C@H](O)[C@H]2O[C@H]2C[C@](C)(N)[C@H](O)[C@H](C)O2)Oc2ccc(cc2Cl)[C@H]1O [Vancomycin]			0.5 µg/mL	0.5 µg/mL	MIC ([1]; Staphylococcus aureus, read-out: MIC mg/L (NRS-384)): 1 mg/L (≈ 0.69 µM); MIC ([2]; Staphylococcus aureus, read-out: MIC mg/L (BAA-44)): 1 mg/L (≈ 0.69 µM)
